Patent US20130005568A1, “SAFENED HERBICIDAL MIXTURES” (E.I. DU PONT DE NEMOURS AND COMPANY, priority 2011, published 2013)

Experiments:
[1] = tested on: Pioneer 39K40 hybrid maize; test: Test B: visual plant response rating, postemergence herbicides with Compound 1 rate series; assay type: in vivo, Zea mays L. spp. indentata Sturt.; conditions: Compound 1 alone 125 g ai/ha; Test B
Protocol: (§1) For all of the following biological tests, plant response ratings were based on a 0-100 scale where zero is growth equivalent to that of untreated plants (no plant response) and 100 represents no additional growth occurring after herbicide treatment.
Herbicide mixtures were dissolved/dispersed in a non-phytotoxic liquid carrier and were sprayed postemergence to Pioneer 39K40 hybrid maize (Zea mays L. spp. indentata Sturt.) in the third collar growth stage (extended leaf height was 50-60 cm). Treated plants were grown under greenhouse conditions for two weeks before visual evaluations of plant responses were recorded.

sorghum hybrid WL09-6001 = tested on: sorghum hybrid WL09-6001; set-up: species or system Sorghum bicolor (L.) Moench; conditions: in vivo
From the text: as §1
(§2) Cultivated sorghum varieties are generally very sensitive to acetohydroxy acid synthase-inhibiting herbicides such as rimsulfuron. To impart tolerance in sorghum hybrids WL09-6001 and WL09-6002 used in this test, plant breeders introduced a gene for acetohydroxy acid synthase (also known as acetolactate synthase) resistant to inhibition by certain acetohydroxy acid synthase-inhibiting herbicides, by breeding starting from a wild Sorghum genotype containing the resistance gene (see U.S. Patent Publication US 2008/0216187 A1).
(§3) Herbicide mixtures were formulated, dissolved/dispersed in water containing 1% crop oil concentrate, and sprayed postemergence to sorghum (Sorghum bicolor (L.) Moench) in the third collar growth stage (extended leaf height is 10-20 cm). Treated plants were grown under greenhouse conditions for two weeks before visual evaluations of plant responses were recorded.

sorghum hybrid WL09-6002 = tested on: sorghum hybrid WL09-6002; set-up: species or system Sorghum bicolor (L.) Moench; conditions: in vivo
From the text: as §1, §2, §3

blackgrass [2] = test: Test E: postemergence plant response rating; assay type: in vivo, Alopecurus myosuroides Huds.; conditions: Compound 1 alone 125 g ai/ha; Test E plants
From the text: as §1
(§4) Herbicide mixtures were formulated, dissolved/dispersed in water containing 0.25% non-ionic surfactant, sprayed postemergence to the crops: winter wheat (Triticum aestivum L.), spring wheat (Triticum aestivum L.), winter barley (Hordeum vulgare L.) and spring barley (Hordeum vulgare L.), and the weeds: blackgrass (Alopecurus myosuroides Huds.), lambsquarters (Chenopodium album L.) and pigweed (Amaranthus retroflexus L.). Treated plants were grown under greenhouse conditions for two weeks before visual evaluations of plant responses were recorded.

lambsquarters = test: Test E: postemergence plant response rating; assay type: in vivo, Chenopodium album L.; conditions: Compound 1 alone 125 g ai/ha; Test E plants
From the text: as §1, §4

winter barley = test: Test F: preemergence plant response rating; assay type: in vivo, Hordeum vulgare L.; conditions: Compound 1 alone 125 g ai/ha; Test F plants
From the text: as §1
(§5) Herbicide mixtures were formulated, dissolved/dispersed in water, and sprayed preemergence to the crops: winter wheat (Triticum aestivum L.) and winter barley (Hordeum vulgare L.), and the weed: blackgrass (Alopecurus myosuroides Huds). Treated plants were grown under greenhouse conditions for three weeks before visual evaluations of plant responses were recorded.

blackgrass [3] = test: Test F: preemergence plant response rating; assay type: in vivo, Alopecurus myosuroides Huds; conditions: Compound 1 alone 125 g ai/ha; Test F plants
From the text: as §1, §5

Zoysia grass = test: Test G: turf grass and weed postemergence plant response rating; assay type: in vivo, Zoysia japonica Steud.; conditions: Compound 1 alone 125 g ai/ha; Test G plants
From the text: as §1
(§6) Plants of the turf grass species: zoysia (Zoysia japonica Steud.), bermudagrass (Cynodon dactylon (L.) Pers.), tall fescue (Festuca arundinacea Shreib.), creeping bentgrass (Agrostis stoonoifera L.), perennial ryegrass (Lolium perenne L.) and hard fescue (Festuca species) were grown under greenhouse conditions for four months. Plants were clipped as needed to plant heights of 5-10 cm. Weeds typically found in turf: annual bluegrass (Poa annua L.), common chickweed (Stellaria media (L.) Vill.), large crabgrass (Digitaria sanguinales (L.) Scop.), dandelion (Taraxacum officinale Weber in Wiggers), goosegrass (Eleusine indica (L.) Gaertn.), henbit (Lamium amplexicaule L.), venice mallow (Hibiscus trionium L.) and purple nutsedge (Cyperus rotundus L.) were also grown under greenhouse conditions so that plants were 5-20 cm tall when they were treated. Herbicide mixtures were formulated, dissolved/dispersed in water containing 0.25% non-ionic surfactant, and sprayed postemergence to these turf grasses and weeds. Treated plants were grown under greenhouse conditions for three weeks before visual evaluations of plant responses were recorded.

Bermudagrass = test: as above; assay type: in vivo, Cynodon dactylon (L.) Pers.; conditions: Compound 1 alone 125 g ai/ha; Test G plants
From the text: as §1
Plants of the turf grass species: zoysia (Zoysia japonica Steud.), bermudagrass (Cynodon dactylon (L.) Pers.), tall fescue (Festuca arundinacea Shreib.), creeping bentgrass (Agrostis stoonoifera L.), perennial ryegrass (Lolium perenne L.) and hard fescue (Festuca species) were grown under greenhouse conditions for four months. Plants were clipped as needed to plant heights of 5-10 cm. […] Herbicide mixtures were formulated, dissolved/dispersed in water containing 0.25% non-ionic surfactant, and sprayed postemergence to these turf grasses and weeds. Treated plants were grown under greenhouse conditions for three weeks before visual evaluations of plant responses were recorded.

Hard fescue = test: as above; assay type: in vivo, Festuca species; conditions: Compound 1 alone 125 g ai/ha; Test G plants
From the text: as §1, §6

Large crabgrass = test: as above; assay type: in vivo, Digitaria sanguinales (L.) Scop.; conditions: Compound 1 alone 125 g ai/ha; Test G plants
From the text: as §1, §6

Henbit = test: as above; assay type: in vivo, Lamium amplexicaule L.; conditions: Compound 1 alone 125 g ai/ha; Test G plants
From the text: as §1, §6

soybean = test: Test I: postemergence plant response rating; assay type: in vivo, Glycine max (L.) Merr.; conditions: Compound 1 alone 125 g ai/ha; Test I plants
From the text: as §1
Herbicide mixtures were formulated, dissolved/dispersed in water containing 0.25% non-ionic surfactant, and sprayed postemergence to the crop: soybean (Glycine max (L.) Merr.) at the 2-leaf growth stage and to weeds: lambsquarters (Chenopodium album L.) and velvetleaf (Abutilon theophrasti Medik.). Weed species were 5-10 cm tall when treated. Treated plants were grown under greenhouse conditions for two weeks before visual evaluations of plant responses were recorded.

sugarcane = test: Test J: sugarcane postemergence plant response rating, field conditions; assay type: in vivo, Saccharum officinarum L.; conditions: Compound 1 alone 140 g ai/ha; Test J
Protocol: as §1
(§7) Herbicide mixtures were formulated, dissolved/dispersed in water containing 0.25% non-ionic surfactant, and sprayed postemergence to sugarcane (Saccharum officinarum L.) approximately 20-40 cm tall (extended leaf height). This test was conducted under field conditions. Visual evaluations of plant responses were recorded four weeks after the plants were treated.

palisade grass = test: Test K: pasture grass postemergence plant response rating, field conditions; assay type: in vivo, Brachiaria brizantha (Hochst. ex A. Rich) Stapf; conditions: Compound 1 alone 140 g ai/ha; Test K plants
From the text: as §1
as §7, with “the pasture grasses: Surinam grass (Brachiaria decumbens Stapf), palisade grass (Brachiaria brizantha (Hochst. ex A. Rich) Stapf) and Alexandergrass (Brachiaria plantaginea (Link) A. S. Hitchc.)” for “sugarcane (Saccharum officinarum L.)”, “10-30” for “20-40”

Alexandergrass = test: as above; assay type: in vivo, Brachiaria plantaginea (Link) A. S. Hitchc.; conditions: Compound 1 alone 140 g ai/ha; Test K plants
From the text: as §1
as §7, with “the pasture grasses: Surinam grass (Brachiaria decumbens Stapf), palisade grass (Brachiaria brizantha (Hochst. ex A. Rich) Stapf) and Alexandergrass (Brachiaria plantaginea (Link) A. S. Hitchc.)” for “sugarcane (Saccharum officinarum L.)”, “10-30” for “20-40”

Measured: injury, Compound 1 alone

Cc1ccccc1S(=O)(=O)NC(N)=O [Compound 1, N-(aminocarbonyl)-2-methylbenzenesulfonamide]
no injury: all assays above
